Reference: patent US6699459B2, “Methods of treating lung inflammation” (The Board of Regents of the University of Texas System, priority 2001, dated 2004)
“Also recorded” adds a separate entry of the source.

How the values were obtained:
STAT-3 = test: Western blot of phosphorylated and total nuclear STAT-3 in RSV-infected A549 cells; type: cell-based, human; settings: nuclear proteins, 400 μM
Protocol: Western Immunoblot. Nuclear proteins were prepared as previously described, fractionated by SDS-PAGE and transferred to PVDF membrane (20). Membranes were blocked with 5% albumin in TBS-Tween and incubated overnight with antibody recognizing the tyrosine phosphorylated form of STAT-1 and STAT-3 (Santa Cruz Biotech, Santa Cruz, Calif.). Membranes were stripped and reprobed with antibodies to STAT-1 and STAT-3 (Santa Cruz Biotech, Santa Cruz, Calif.). For secondary detection, a horseradish-coupled anti-rabbit or anti-mouse antibody was used (Santa Cruz Biotech, Santa Cruz, Calif.) in the enhanced chemiluminescence assay (Amersham Life Science, Arlington Heights, Ill.).

IRF-3 = test: Western blot of IRF-3 in total cell lysates of RSV-infected A549 cells; type: cell-based, human; settings: whole cell extracts, RSV 12 hours, 400 μM
Protocol: (§1) Western Immunoblot. Total cell lysates and cytoplasmic and nuclear proteins were prepared as previously described, fractionated by SDS-PAGE and transferred to PVDF membrane (20). Membranes were blocked with 5% albumin in TBS-Tween and incubated overnight with a rabbit polyclonal antibody to IRF-1, -3 and -7 (Santa Cruz Biotech, Santa Cruz, Calif.). For secondary detection, a horseradish-coupled anti-rabbit or anti-mouse antibody was used in the enhanced chemiluminescence assay (Amersham Pharmacia Biotec, Arlington Heights, Ill.).

human RANTES promoter = test: RANTES promoter luciferase reporter in RSV-infected A549 cells; type: cell-based; settings: RSV 24 hours, 400 μM
Text: Plasmid construction and cell transfection. A fragment of the human RANTES promoter spanning from −220 to +55 nucleotides (nt), relative to the mRNA start site designated +1 was cloned into the luciferase reporter gene vector pGL2 (Promega, Madison, Wis.) and defined as pGL2-220. Site mutations of the RANTES ISRE in the context of pGL2-220 plasmid were introduced by PCR using the following upstream and downstream mutagenic primers (mutations in lower cases): […]
Logarithmically growing A549 cells were transfected in triplicate in 60 mm petri dishes by DEAE-Dextran, as previously described (20). Cells were incubated in 2 ml of HEPES buffered Dulbecco's modified Eagle's medium (DMEM) (10 mM Hepes, pH 7.4) containing 20 μl of 60 mg/ml DEAE-Dextran (Amersham Pharmacia Biotec, Arlington Heights, Ill.) premixed with 6 μg of RANTES-pGL2 plasmids and 1 μg cytomegalovirus (CMV)-β galactosidase internal control plasmid. After 3 hours, media was removed and 0.5 ml of 10% (v/v) DMSO in phosphate buffered saline (PBS) was added to the cells for 2 minutes. Cells were washed with PBS and cultured overnight in 10% FBS/DMEM. The next morning, cells were infected with RSV and at 24 hours post-infection cells were lysed to measure independently luciferase and β-galactosidase reporter activity, as previously described (20). Luciferase was normalized to the internal control β-galactosidase activity. […]

IRF-7 mRNA = test: Northern blot of IRF-7 mRNA in RSV-infected A549 cells; type: cell-based, human; settings: 400 μM
Protocol: (§2) Northern Blot. Total RNA was extracted from control and infected A549 cells by the acid guanidium thiocyanate-phenol chloroform method (18). Twenty micrograms of RNA were fractionated on a 1.2% agarose-formaldehyde gel, transferred to nylon membranes and hybridized to a radiolabeled RANTES, IRF-1, -3 and -7 cDNAs, as previously described (19). Hybridization temperature for all probes was 55° C. After washing, membranes were exposed for autoradiography using Kodak XAR film at −70° C. using intensifying screens. After exposure, membranes were stripped and rehybridized with a β-actin probe.

IRF-7 ISRE = test: EMSA of IRF-7 ISRE binding complexes, nuclear extracts of RSV-infected A549 cells; type: cell-based, human; settings: all time points, 400 μM
Protocol: Electrophoretic mobility shift assay (EMSA): Nuclear extracts of uninfected and infected A549 cells were prepared using hypotonic/nonionic detergent lysis, as previously described (20). Proteins were normalized by protein assay (Protein Reagent, Bio-Rad, Hercules, Calif.) and used to bind to a duplex oligonucleotide corresponding to the IRF-1 gamma interferon activated sequence (GAS) and IRF-7 ISRE, whose sequences are shown below.
DNA-binding reactions contained 10-15 μg nuclear proteins, 5% glycerol, 12 mM HEPES, 80 mM NaCl, 5 mM DTT, 5 mM Mg2Cl, 0.5 mM EDTA, 1 μg of poly dI-dC and 40,000 cpm of ^32P-labeled double-stranded oligonucleotide in a total volume of 20 μl. The nuclear proteins were incubated with the probe for 15 minutes at room temperature and then fractionated by 4% nondenaturing polyacrylamide gels (PAGE) in 0.5× TBE buffer (22 mM Tris-HCl, 22 mM boric acid, 0.25 MM EDTA, pH 8), at 120 volts. After electrophoretic separation, gels were dried and exposed for autoradiography using Kodak XAR film at −70° C. using intensifying screens. In the gel mobility supershift, commercial antibodies against specific transcription factors were added to the binding reactions and incubated on ice for one hour prior to fractionation on 6% PAGE.

human IRF-1 promoter = test: IRF-1 promoter luciferase reporter in A549 cells; type: cell-based
Protocol: Cell transfection. To investigate IRF-1 and -7 gene transcription, A549 cells were transiently transfected with the IRF-1 or -7 promoter, linked to the luciferase reporter gene. Logarithmically growing A549 cells were transfected in triplicate in 60 mm petri dishes by DEAE-Dextran, as previously described (20). Cells were incubated in 2 ml of HEPES buffered DMEM (10 mM Hepes, pH 7.4) containing 20 μl of 60 mg/ml DEAE-Dextran (Amersham Pharmacia Biotec, Arlington Heights, Ill.) premixed with 6 μg of either IRF-1 or -7 plasmids and 1 μg CMV-β galactosidase internal control plasmid. After 3 hours, media was removed and 0.5 ml of 10% (v/v) DMSO in PBS was added to the cells for 2 minutes. Cells were washed with PBS and cultured overnight in 10% FBS/DMEM. The next morning, cells were infected with RSV and cells were lysed at different times post-infectionto measure independently luciferase and galactosidase reporter activity, as previously described (20). Luciferase was normalized to the internal control galactosidase activity. All experiments were performed in duplicate or triplicate.

β-actin = β-actin mRNA (Northern blot) in A549 cells; type: cell-based, human; settings: 400 μM, compared to untreated cells
Protocol: as §2

IRF-7 = test: Western blot of IRF-7 in total cell lysates of RSV-infected A549 cells; type: cell-based, human; settings: whole cell extracts, RSV 12 hours, 400 μM
Protocol: as §1

IRF-3 mRNA = test: Northern blot of IRF-3 mRNA in RSV-infected A549 cells; type: cell-based, human; settings: data not shown
Protocol: as §2

In the case of `COc1ccc(O)c(C(C)(C)C)c1` [BHA, butylated hydroxyanisol], the “RSV-induced STAT-3 nuclear translocation” value (STAT-3) was “completely inhibited”, the “RSV-induced STAT-3 phosphorylation” value (STAT-3) was “completely abolished” and the “RSV-induced IRF-3 mobility shift” value (IRF-3) was “almost completely abolished”. For the same compound, the “RSV-induced luciferase activity (RANTES promoter)” value (human RANTES promoter) was “almost completely abolished”, the “IRF-7 mRNA accumulation” value (IRF-7 mRNA; 6 and 12 hours post-infection) was “almost completely blocked” and the “IRF-7 mRNA accumulation” value (IRF-7 mRNA; 24 hours post-infection) was “significantly reduced”. The “binding of the RSV-inducible complexes to the IRF-7 ISRE probe” value (IRF-7 ISRE) was “greatly reduced”, the “basal level of transcription (IRF-1 promoter)” value (human IRF-1 promoter; A549 cells) was “did not affect” and the “RSV-induced luciferase activity (IRF-1 promoter)” value (human IRF-1 promoter; RSV 12 hours, 400 μM) was “completely abolished”. The “levels of the housekeeping gene β-actin” value (β-actin) was “does not affect; also recorded: not systematically reduced”, the “RSV-induced IRF-7 protein synthesis” value (IRF-7) was “almost completely abolished” and the “IRF-3 mRNA level” value (IRF-3 mRNA) was “unaffected”.
